Results taken from patent publication US4136194A, “2-Phenyl-2-carboxyethyl 1-(p-chlorobenzoyl)-5-methoxy-2-methyl-3-indolylacetate and process for preparation thereof” (SPOFA, United Pharmaceutical Works, priority 1976, dated 1979).
Read-outs that look alike come from different tables or passages of the source.

Assays:
[1] = Acute oral toxicity in rats; conditions: rat, in vivo, single dose, female rats, 10 days, limits after the slash
Procedure: (§1) The 2-phenyl-2-carboxyethyl 1-(p-chlorobenzoyl)-5-methoxy-2-methyl-3-indolylacetate prepared in accordance with the invention was evaluated by comparison with 1-(p-chlorobenzoyl-5-methoxy-2-methyl-3-indolylacetic acid), the widely-used anti-inflammatory substance indomethacin. The two compounds were compared upon oral administration of their aqueous suspensions, with the addition of gum arabic, into the stomachs of test animals using a flexible metallic probe.
(§2) Acute toxicity was determined by administering both compounds in a single dose to female mice weighing 16-20 grams (groups of ten) and female rats weighing 130-150 grams (groups of ten). The mortality rate was followed for 10 days after administration of the dosage. The median lethal doses, LD50, are set forth in Table I below and were calculated by the method of J. Berkson, J. Am. Stat. Assoc. 50, 529, (1955).

[2] = tested on: kaolin oedema; experiment: Kaolin oedema inhibition; format: in vivo; conditions: 1 mg/kg p.o., one hour before kaolin, male rats, vs untreated control
Procedure: as §1
(§3) Anti-inflammatory activity was evaluated on kaolin oedema, carrageenin oedema and Freund adjuvant disease as standard model inflammatory syndromes in a group of six male rats.
The kaolin oedema of an extremity (J. Hillebrecht, Arzneim.-Forsch. 9, 625 (1969)) was produced in male rats weighing 130-150 grams by subplanatary injection of a 10% aqueous suspension of kaolin (0.1 ml). The indolylacetate of the invention and indomethacin were administered one hour before the injection of the suspension. The oedema size was measured 30 minutes, 3, 4.5 and 6 hours after the injection. The activity is conveniently expressed in percent of rate of inhibition in comparison with the untreated control group, the results being summarized in Table II below.

[3] = Acute oral toxicity in mice; conditions: mouse, in vivo, single dose, female mice, 10 days, limits after the slash
Procedure: as §1, §2

[4] = tested on: mice; experiment: Analgesic activity, intraperitoneal irritation test with 3% acetic acid; format: in vivo, female mice; conditions: Mus musculus, read-out: ED50 (analgesic activity)
Procedure: as §1
Analgesic activity was evaluated by the intraperitoneal irritation test with 3% acetic acid (L. B. Wilkin et al., J. Pharm. 133, 400 (1961)) in female mice weighing 16-20 grams (groups of 12 animals).

[5] = tested on: carrageenin oedema; experiment: Carrageenin oedema inhibition; format: in vivo; conditions: 1.5 mg/kg p.o., male rats, vs untreated control
Procedure: as §1, §3
The carrageenin oedema (Ch. Winter, Proc. Soc. Exp. Biol. Med. 111, 544 (1962)) was produced in male rats weighing 130-150 grams by subplanatary injection of a 0.5% carrageenin solution (0.1 ml). The dosage schedule and assay procedure as well as the results were identical with those described above for the kaolin oedema inhibition test.

[6] = tested on: gastric mucosa; format: in vivo; conditions: 8 mg/kg oral, starving female rats
Procedure: as §1
Gastrotoxicity (adversary effect on gastric mucosa, A. Robert, J. E. Nezamis, Proc. Soc. Exp. Biol. Med. 99, 443 (1958)) was monitored by oral administration of the compounds being compared by testing starving female rats of 250-300 grams body weight (group of six animals). The evaluation was made by estimating the frequency of gastric erosions and ulcers. The relative gastrotoxicity of the two compounds is expressed by the respective standard criteria, ulceration index, as indicated in Table IV below.

SMILES	LD50 at 240 h [1] [mg/kg]	Kaolin oedema inhibition [2] [%]	LD50 at 240 h [3] [mg/kg]	ED50 ([4]; oral, female mice, 3% acetic acid i.p.) [mg/kg]	Carrageenin oedema inhibition [5] [%]	Ulceration Index [6]	ED50 ([4]; po) [mg/kg]
COc1ccc2c(c1)c(CC(=O)OCC(C(=O)O)c1ccccc1)c(C)n2C(=O)c1ccc(Cl)cc1 (centres unmarked) [Compound of Invention, 2-phenyl-2-carboxyethyl 1-(p-chlorobenzoyl)-5-methoxy-2-methyl-3-indolylacetate]	140	16	190	24.5	15		
COc1ccc2c(c1)c(CC(=O)O)c(C)n2C(=O)c1ccc(Cl)cc1 [Indomethacin, 1-(p-chlorobenzoyl)-5-methoxy-2-methyl-3-indolylacetic acid]	25	19	18		14	300	14.5
